In brackets after ≈: the same amount, converted by molar mass. Like-named read-outs stand apart in the source and are kept apart here.
Experiments:
Erwinia amylovora 1189 = experiment: MIC antimicrobial assay (CLSI, 96 well plates); type: cell-based
Erwinia amylovora 110 = experiment: microbe, parasite or virus in culture; type: cell-based
[1] = tested on: Erwinia amylovora CA11 (streptomycin-resistant); experiment: microbe, parasite or virus in culture; type: cell-based
[2] = tested on: Erwinia amylovora DM1 (streptomycin-resistant); experiment: microbe, parasite or virus in culture; type: cell-based
[3] = tested on: Erwinia amylovora 898 (streptomycin-resistant); experiment: microbe, parasite or virus in culture; type: cell-based
[4] = tested on: Xanthomonas axonopodis pv. citri-Miami XC2002-00010; experiment: MIC antimicrobial assay (CLSI, 96 well plates); type: cell-based
[5] = tested on: Xanthomonas axonopodis pv. citri N40-SO5; experiment: MIC antimicrobial assay (CLSI, 96 well plates); type: cell-based
[6] = tested on: Methicillin-resistant staphylococcus aureus USA300; experiment: microbe, parasite or virus in culture; type: cell-based
[7] = tested on: Pectobacterium parmentieri UPP163 936; experiment: MIC antimicrobial assay (CLSI, 96 well plates); type: cell-based; settings: UPP163936; Pectobacterium parmentieri UPP163 936 (soft rot)
[8] = tested on: Pectobacterium atrosepticum 942; experiment: MIC antimicrobial assay (CLSI, 96 well plates); type: cell-based; settings: Pectobacterium atrosepticum 942 (soft rot)
[9] = tested on: Pectobacterium carotovorum subsp. brasiliensis 944; experiment: MIC antimicrobial assay (CLSI, 96 well plates); type: cell-based; settings: Pectobacterium carotovorum subsp. brasiliensis 944 (soft rot)
[10] = tested on: Pectobacterium carotovorum subsp. carotovorum wpp14 945; experiment: MIC antimicrobial assay (CLSI, 96 well plates); type: cell-based; settings: Pectobacterium carotovorum subsp. carotovorum wpp14 945 (soft rot)
Dickeya dadantii 3937 = experiment: MIC antimicrobial assay (CLSI, 96 well plates); type: cell-based; settings: Dickeya dadantii 3937 (soft rot)
[11] = tested on: Pseudomonas savastanoi pv. savastanoi; experiment: MIC antimicrobial assay (CLSI, 96 well plates); type: cell-based
[12] = tested on: Flavobacterium columnare #2; experiment: MIC antimicrobial assay (CLSI, 96 well plates); type: cell-based; settings: Flavobacterium columnare #2 (Fish columnaris disease), TYES
[13] = tested on: Flavobacterium columnare MS-FC-4; experiment: MIC antimicrobial assay (CLSI, 96 well plates); type: cell-based; settings: MSFC4; Flavobacterium columnare MS-FC-4 (Fish columnaris disease), SHIEH
[14] = tested on: Pseudomonas syringae pv. tomato PT30; experiment: MIC antimicrobial assay (CLSI, 96 well plates); type: cell-based; settings: Pseudomonas syringae pv. tomato PT30 (Tomato bacterial speck)
[15] = tested on: Pseudomonas syringae pv syringae 7046; experiment: MIC antimicrobial assay (CLSI, 96 well plates); type: cell-based; settings: Pseudomonas syringae pv syringae 7046 (Bacterial canker or blast)
[16] = tested on: Pseudomonas syringae pv. lachrymans 1188-1; experiment: MIC antimicrobial assay (CLSI, 96 well plates); type: cell-based; settings: Pseudomonas syringae pv. lachrymans 1188-1 (Angular Leaf Spot of Cucurbits)
[17] = tested on: Xanthomonas campestris pv. Pruni; experiment: MIC antimicrobial assay (CLSI, 96 well plates); type: cell-based; settings: Xanthomonas campestris pv. Pruni (Bacterial Spot of Peach)
[18] = tested on: Xanthomonas arboricola pv. Juglandis 219; experiment: MIC antimicrobial assay (CLSI, 96 well plates); type: cell-based
[19] = tested on: Clavibacter michiganensis subsp. michiganensis NCPPB382; experiment: MIC antimicrobial assay (CLSI, 96 well plates); type: cell-based
[20] = tested on: Clavibacter michiganensis subsp. michiganensis Cmm 0317; experiment: MIC antimicrobial assay (CLSI, 96 well plates); type: cell-based
[21] = tested on: Clavibacter michiganensis subsp. michiganensis Cmm 0690; experiment: MIC antimicrobial assay (CLSI, 96 well plates); type: cell-based
[22] = tested on: Xanthomonas bacteria (Xanthomonas axonopodis pv. citri); experiment: MIC antimicrobial assay; type: cell-based
E. amylovora = experiment: Plate diffusion assay in LB plates; type: cell-based, Erwinia amylovora; settings: 2 mg/mL; for zone of inhibition at 2000 µg/mL: Erwinia amylovora, read-out: Diameter of the Inhibitory zone
From the text: Two assays were used for the antimicrobial test of 0617-T307 cell broth and metabolites. One is plate diffusion assay and the other one is microplate assay. LB plate was used for the plate diffusion assay of the antimicrobial activity of RejuAgro A containing fractions and cell broths against E. amylovora (Table 3).

E. amylovora 110 = experiment: Greenhouse blossom blight assay on crabapples trees (RejuAgro A); type: in vivo, Erwinia amylovora
Procedure: To evaluate the biological control activity of RejuAgro A against Erwinia amylovora, greenhouse infection assay on crabapples trees was conducted at the University of Wisconsin-Milwaukee. Ten μg/mL was supplemented with 1% Polyethylene glycol (PEG) 4000 or 1% PEG4000 (negative control) were applied on full bloom trees flowers 3 hours prior to the inoculation and 24 hours post-inoculation. Approximately 10^8 CFU/mL of E. amylovora 110 strain resuspended in water was used as inoculum. The infection rate was calculated at around day 6 post inoculation. RejuAgro A can effectively suppress the blossom blight (Table 6).

[23] = tested on: X. arboricola pv. Juglandis Xaj219; experiment: microbe, parasite or virus in culture; type: cell-based, Xanthomonas arboricola pv. Juglandis; settings: Xanthomonas arboricola, read-out: Diameter of the zone of inhibition
[24] = tested on: X. arboricola pv. Juglandis Xaj417; experiment: microbe, parasite or virus in culture; type: cell-based, Xanthomonas arboricola pv. Juglandis; settings: Xanthomonas arboricola, read-out: Diameter of the zone of inhibition
R. solanacearum K60 = experiment: microbe, parasite or virus in culture; type: cell-based; settings: Ralstonia solanacearum, K60, read-out: Diameter of the zone of inhibition
R. solanacearum Pss = experiment: microbe, parasite or virus in culture; type: cell-based; settings: Ralstonia solanacearum, read-out: Diameter of the zone of inhibition
[25] = tested on: P. syringae (pv. tomato PT30, pv syringae 7046, pv. lachrymans 1188-1); experiment: MIC antimicrobial assay; settings: Pseudomonas syringae
[26] = tested on: Pseudomonas soli 0617-T307; experiment: MIC antimicrobial assay (CLSI, 96 well plates)
[27] = Staphylococcus aureus, MRSA / USA300

SMILES	MIC (Erwinia amylovora 110)	MIC ([1]; Erwinia amylovora)	MIC ([2]; Erwinia amylovora)	MIC ([3]; Erwinia amylovora)	MIC [4]	MIC [5]	MIC [6, 27]	MIC [7]	MIC [8]	MIC [9]	MIC [10]	MIC (Dickeya dadantii 3937)	MIC [12]	MIC [13]	MIC [14]	MIC [15]	MIC [16]	MIC ([17]; read-out: MIC)	MIC [19]	MIC [20]	also measured
CSC1=C(C)C(=O)C(=O)NC1=O [RejuAgro A]	5 µg/mL (≈ 27 µM)	10 µg/mL (≈ 54 µM)	10 µg/mL (≈ 54 µM)	10 µg/mL (≈ 54 µM)	5 µg/mL (≈ 27 µM)	5 µg/mL (≈ 27 µM)	> 40 µg/mL	40 µg/mL (≈ 216 µM)	20 µg/mL (≈ 108 µM)	40 µg/mL (≈ 216 µM)	40 µg/mL (≈ 216 µM)	40 µg/mL (≈ 216 µM)	5 µg/mL (≈ 27 µM)	5 µg/mL (≈ 27 µM)	40 µg/mL (≈ 216 µM)	20 µg/mL (≈ 108 µM)	10 µg/mL (≈ 54 µM)	40 µg/mL (≈ 216 µM)	6.25 µg/mL (≈ 33.7 µM)	1.56 µg/mL (≈ 8.42 µM)	MIC (Erwinia amylovora 1189; Erwinia amylovora, 1189, Erwinia amylovora 1189 (Fire blight on apples/pears)): 5 µg/mL (≈ 27 µM); MIC ([6]; MRSA USA300 (Skin infection, sepsis)): >40 µg/mL; MIC ([11]; Pseudomonas savastanoi): 40 µg/mL (≈ 216 µM); MIC ([18]; Xanthomonas arboricola): 6.25 µg/mL (≈ 33.7 µM); MIC [21]: 12.5 µg/mL (≈ 67.5 µM); MIC [22]: 5 µg/mL (≈ 27 µM); Diameter of the Inhibitory zone (E. amylovora): showed the antimicrobial activity; zone of inhibition at 2000 µg/mL (E. amylovora): 11 mm; Infection rate (E. amylovora 110; 10 μg/mL with 1% PEG4000, 3 hours prior and 24 hours post-inoculation, around day 6, negative control 50.8%): 12.3%; zone of inhibition at 2000 µg/mL [23]: 5 mm; zone of inhibition at 2000 µg/mL [24]: 10 mm; zone of inhibition at 2000 µg/mL (R. solanacearum K60): 4 mm; zone of inhibition at 2000 µg/mL (R. solanacearum Pss): 5 mm; MIC [25]: 40 µg/mL (≈ 216 µM); MIC ([26]; Pseudomonas soli 0617-T307 (RejuAgro A producer), LB media): >40 µg/mL; MIC ([26]; Pseudomonas soli, 0617T307): > 40 µg/mL
[H]/N=C(/N)N[C@H]1[C@H](O)[C@@H](O)[C@H](O[C@@H]2O[C@@H](C)[C@](O)(C=O)[C@H]2O[C@@H]2O[C@@H](CO)[C@H](O)[C@@H](O)[C@@H]2NC)[C@@H](N/C(N)=N\[H])[C@@H]1O [Streptomycin, reference compound]	5 µg/mL (≈ 8.6 µM)	> 40 µg/mL	> 40 µg/mL	> 40 µg/mL	0.16 µg/mL (≈ 0.275 µM)	0.16 µg/mL (≈ 0.275 µM)	10 µg/mL (≈ 17.2 µM)	40 µg/mL (≈ 68.8 µM)	20 µg/mL (≈ 34.4 µM)	40 µg/mL (≈ 68.8 µM)	40 µg/mL (≈ 68.8 µM)	20 µg/mL (≈ 34.4 µM)	0.31 µg/mL (≈ 0.533 µM)	1.25 µg/mL (≈ 2.15 µM)	2.5 µg/mL (≈ 4.3 µM)	2.5 µg/mL (≈ 4.3 µM)	5 µg/mL (≈ 8.6 µM)	> 40 µg/mL	12.5 µg/mL (≈ 21.5 µM)	3.12 µg/mL (≈ 5.36 µM)	MIC (Erwinia amylovora 1189; Erwinia amylovora 1189 (Fire blight on apples/pears)): 20 µg/mL (≈ 34.4 µM); MIC (Erwinia amylovora 1189; Erwinia amylovora, 1189, Erwinia amylovora 1189 (Fire blight on apples/pears), read-out: MIC): 10 µg/mL (≈ 17.2 µM); MIC ([1]; Erwinia amylovora CA11, streptomycin-resistant): >40 µg/mL; MIC ([2]; Erwinia amylovora DM1, streptomycin-resistant): >40 µg/mL; MIC ([3]; Erwinia amylovora 898, spontaneous streptomycin-resistant): >40 µg/mL; MIC ([11]; Pseudomonas savastanoi pv. savastanoi (Olive knot), read-out: MIC): 0.31 µg/mL (≈ 0.533 µM); MIC [17]: >40 µg/mL; MIC ([18]; Xanthomonas arboricola pv. Juglandis 219 (walnut blight), read-out: MIC): 0.39 µg/mL (≈ 0.671 µM); MIC [21]: 12.5 µg/mL (≈ 21.5 µM); MIC [22]: 0.16 µg/mL (≈ 0.275 µM); zone of inhibition at 2000 µg/mL (E. amylovora): 24 mm; Infection rate (E. amylovora 110; 200 μg/mL, around day 6 post inoculation): 5.7%; zone of inhibition at 100 µg/mL [23]: 13 mm; zone of inhibition at 100 µg/mL [24]: 19 mm; zone of inhibition at 100 µg/mL (R. solanacearum K60): 15 mm; zone of inhibition at 100 µg/mL (R. solanacearum Pss): 15 mm; MIC [25]: 2.5 to 5 µg/mL (≈ 4.3 to 8.6 µM); MIC ([26]; Pseudomonas soli, 0617T307): > 40 µg/mL

Reference: patent US12089595B2, “Pseudomonas strains and their metabolites to control plant diseases” (T3 Bioscience, Inc., priority 2020, dated 2024)
